Laboratory results from patent publication US20110045101A1, “FUNGICIDAL SUBSTITUTED AZOLES” (E.I. Du Pont De Nemours and Company, priority 2009, published 2011).
Where two headings read alike, the source gives them in different places.

Assays:
Type in all cases: in vivo
[1] = tested on: Plasmopara viticola; experiment: Test A: grape downy mildew, test suspension sprayed after inoculation of grape seedlings, visual disease rating; conditions: 200 ppm, 100 = 100% disease control
Source text: General protocol for preparing test suspensions for Tests A-J: The test compounds were first dissolved in acetone in an amount equal to 3% of the final volume and then suspended at the desired concentration (in ppm) in acetone and purified water (50/50 mix) containing 250 ppm of the surfactant Trem® 014 (polyhydric alcohol esters). The resulting test suspensions were then used in tests A-J. Spraying a 200 ppm test suspension to the point of run-off on the test plants was the equivalent of a rate of 500 g/ha. […] Grape seedlings were inoculated with a spore suspension of Plasmopara viticola (the causal agent of grape downy mildew) and incubated in a saturated atmosphere at 20° C. for 24 h. After a short drying period, the grape seedlings were sprayed with the test suspension to the point of run-off and then moved to a growth chamber at 20° C. for 5 days, after which time the grape seedlings were placed back into a saturated atmosphere at 20° C. for 24 h. Upon removal, visual disease ratings were made. […] A dash (-) indicates no test results.

[2] = tested on: Rhizoctonia solani; experiment: Test B: turf brown patch on bentgrass seedlings, sprayed the day before inoculation, visual disease rating; conditions: 200 ppm, 100 = 100% disease control
Source text: General protocol for preparing test suspensions for Tests A-J: The test compounds were first dissolved in acetone in an amount equal to 3% of the final volume and then suspended at the desired concentration (in ppm) in acetone and purified water (50/50 mix) containing 250 ppm of the surfactant Trem® 014 (polyhydric alcohol esters). The resulting test suspensions were then used in tests A-J. Spraying a 200 ppm test suspension to the point of run-off on the test plants was the equivalent of a rate of 500 g/ha. […] The test suspension was sprayed to the point of run-off on bentgrass (Agrostis sp.) seedlings. […] A dash (-) indicates no test results. All results are for 200 ppm except where followed by “*”, which indicates 40 ppm.

[3] = tested on: Botrytis cinerea; experiment: Test C: tomato Botrytis on tomato seedlings, sprayed the day before inoculation, visual disease rating; conditions: 200 ppm, 100 = 100% disease control; for pest or weed control at 200 ppm: Botrytis cinerea, 120 h
In short: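 Tomato seedlings sprayed to run-off with compound suspended in acetone/water with 250 ppm Trem 014 surfactant, at 200 ppm (≈500 g/ha) or 40 ppm where marked, one day before Botrytis cinerea inoculation. Disease rated visually.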

[4] = tested on: Alternaria solani; experiment: Test D: tomato early blight, sprayed the day before inoculation, visual disease rating; conditions: 200 ppm, 100 = 100% disease control; for pest or weed control at 200 ppm: Alternaria solani, 168 h
In short: (§1)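 Compounds were dissolved in acetone (3% of final volume), then suspended in 50/50 acetone/water with 250 ppm Trem 014 surfactant and sprayed to run-off on test plants. A 200 ppm suspension equals 500 g/ha. Ratings are at 200 ppm unless flagged as 40 ppm.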

[5] = tested on: Phytophthora infestans; conditions: 200 ppm, 100 = 100% disease control
[6] = tested on: Septoria nodorum; experiment: Test F: wheat glume blotch on wheat seedlings, sprayed the day before inoculation, visual disease rating; conditions: 200 ppm, 100 = 100% disease control; for pest or weed control at 200 ppm: Parastagonospora nodorum, 264 h
In short: as §1

[7] = tested on: Septoria tritici; experiment: Test G: wheat leaf blotch on wheat seedlings, sprayed the day before inoculation, visual disease rating; conditions: 200 ppm, 100 = 100% disease control; for pest or weed control at 200 ppm: Zymoseptoria tritici, 504 h
In short: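 Compounds dissolved in acetone (3% of final volume), then suspended in 50/50 acetone/water with 250 ppm Trem® 014 and sprayed to run-off on seedlings at 200 ppm (≈500 g/ha) or 40 ppm where marked. Inoculation with spores followed next day; visual rating after 48 h saturated at 24° C plus 19 days at 20° C.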

[8] = tested on: Puccinia recondita f. sp. tritici; experiment: Test I: wheat leaf rust on wheat seedlings, sprayed the day before inoculation, visual disease rating; conditions: 200 ppm, 100 = 100% disease control; for pest or weed control at 200 ppm: Puccinia recondita, 168 h
In short: as §1

[9] = tested on: Erysiphe graminis f. sp. tritici; experiment: Test J: wheat powdery mildew on wheat seedlings, sprayed the day before inoculation, visual disease rating; conditions: 200 ppm, 100 = 100% disease control; for pest or weed control at 200 ppm: Blumeria graminis, 168 h
In short: as §1

[10] = 0 = no control relative to controls

| Compound | Test A disease control rating ([1]; 0 = no control) [%] | Test B disease control rating ([2]; 0 = no control) [%] | Test C disease control rating ([3]; 0 = no control) [%] | Test D disease control rating ([4]; 0 = no control) [%] | Test F disease control rating ([6]; 0 = no control) [%] | Test G disease control rating ([7]; 0 = no control) [%] | Test I disease control rating ([8]; 0 = no control) [%] | Test J disease control rating ([9]; 0 = no control) [%] | Test A disease control rating [1, 10] [%] | Test B disease control rating [2, 10] [%] | Test C disease control rating [3, 10] [%] | Test D disease control rating [4, 10] [%] | Test E disease control rating [5, 10] [%] | Test F disease control rating [6, 10] [%] | Test G disease control rating [7, 10] [%] | Test I disease control rating [8, 10] [%] | Test J disease control rating [9, 10] [%] | other results |
| --- | --- | --- | --- | --- | --- | --- | --- | --- | --- | --- | --- | --- | --- | --- | --- | --- | --- | --- |
| Cc1ccc(-n2cnc(Cl)c2-c2ccc(F)cc2Cl)cc1 [compound 179] | 0 | 0 | 99 | 9 | 0 | 98 | 99 | 99 | – | – | – | – | – | – | – | – | – | Test E disease control rating ([5]; 0 = no control): 0% |
| Cc1nn(C)c(-c2ccc(Cl)c(F)c2)c1-c1c(F)cccc1F [compound 67] | – | – | – | – | – | – | – | – | 7 | 98 | 44 | 99 | 0 | 0 | 80 | 0 | 99 | – |
| Cc1cc(C)nc(-c2cnnn2-c2cc(Cl)cc(Cl)c2)n1 [compound 644] | – | – | – | – | – | – | – | – | 0 | – | 94 | 0 | 0 | 0 | 0 | 0 | 0 | – |
| Cc1nc(Cl)c(-c2ccc(F)cc2)n1-c1ccc(Cl)cc1 [Compound 5, 4-chloro-1-(4-chlorophenyl)-5-(4-fluorophenyl)-2-methyl-1H-imidazole] | – | – | – | – | – | – | – | – | 0 | 38 | – | – | 0 | – | – | – | – | pest or weed control at 200 ppm [3, 10]: 98%; pest or weed control at 200 ppm [4, 10]: 99%; pest or weed control at 200 ppm [6, 10]: 0%; pest or weed control at 200 ppm [7, 10]: 100%; pest or weed control at 200 ppm [8, 10]: 88%; pest or weed control at 200 ppm [9, 10]: 99% |
| 2-bromo-1-(4-chlorophenyl)-5-(2,6-difluorophenyl)-2-methyl-1H-imidazole [Compound 740] | – | – | – | – | – | – | – | – | 37 | 99 | 100 | 100 | 0 | 100 | 100 | 100 | 100 | – |
| Fc1cc(-n2cnc(Cl)c2-c2c(F)cccc2Cl)ccc1Cl [compound 192] | 0 | 21 | 99 | 16 | 0 | 94 | 84 | 99 | – | – | – | – | – | – | – | – | – | Test E disease control rating ([5]; 0 = no control): 0% |
| Fc1ccc(-n2cnc(Cl)c2-c2ccc(F)cc2Cl)cc1 [compound 178] | 9 | 0 | 99 | 99 | 0 | 100 | 74 | 100 | – | – | – | – | – | – | – | – | – | – |
| Cc1ncc(-c2ccc(F)cc2)n1-c1ccc(Cl)cc1 [Compound 4, 1-(4-chlorophenyl)-5-(4-fluorophenyl)-2-methyl-1H-imidazole] | – | – | – | – | – | – | – | – | 0 | 18 | – | – | 0 | – | – | – | – | pest or weed control at 200 ppm [3, 10]: 67%; pest or weed control at 200 ppm [4, 10]: 0%; pest or weed control at 200 ppm [6, 10]: 0%; pest or weed control at 200 ppm [7, 10]: 93%; pest or weed control at 200 ppm [8, 10]: 79%; pest or weed control at 200 ppm [9, 10]: 94% |
| Fc1ccc(-n2cnc(Cl)c2-c2c(F)cccc2Cl)cc1 [compound 180] | 0 | 88 | 99 | 99 | 0 | 98 | 99 | 100 | – | – | – | – | – | – | – | – | – | – |
